Data: PubChem BioAssay AID1963831 (Molecular Pharmacology Branch, DTP, NCI, 2024)
Several values for one entry are separate records, joined by “and”; a condition that tells them apart may be missing. Identical values can stand only once.

Tested on: 889142-216-R-J1-PDC complex spheroid viability
Test: Anticancer human tumor 889142-216-R-J1-PDC patient-derived bladder carcinoma cell line growth inhibition [POLQ]
Conditions: for viability, T/C: stronger effect = lower value
Procedure: Multicellular complex tumor spheroid response to Polymerase (POL) inhibitors (novobiocin, ART-558, RP6685) in combination with a variety of drugs and investigational agents in selected tumor cell lines
The POL inhibitors (novobiocin, ART-558, and RP6685) were evaluated both individually and in combination with standard of care and investigational anticancer small molecules within a complex spheroid model of solid tumors. . Complex spheroids include a stromal component modeled by human endothelial cells (HUVEC) and fibroblasts modeled by human mesenchymal stem cells (MSCs). The concentration ranges selected for each drug and investigational agent were based upon clinically achievable concentrations if the clinical Cmax of the agent was known.
Compounds. The drugs and investigational agents: novobiocin (NSC847541), ART-558 (NSC835418), RP-6685 (NSC848927), peposertib (NSC802822), ceralasertib (NSC780249), elimusertib (NSC800525), camonsertib (NSC841442), AZD-1390 (NSC803789), olaparib (NSC753686), talazoparib (NSC767125), rucaparib (NSC756644), sotorasib (NSC818433), MRTX-1133 (NSC836407), SN-38 (NSC673596), topotecan (NSC609699), epotoside (NSC141540), doxorubicin (NSC123127), gemcitabine (NSC613327), 5-fluorouracil (NSC19893), paclitaxel (NSC125973), vemurafenib (NSC761431), MSA-2 (NSC828583), SN-011 (NSC837082), adavosertib (NSC754352), prexasertib (NSC758257), carboplatin (NSC241240) and oxaliplatin (NSC266046), were obtained from the National Cancer Institute (NCI) Developmental Therapeutics Program Chemical Repository (21). The FDA-approved anticancer drug set is available from the Developmental Therapeutics Program at https://dtp.cancer.gov/organization/dscb/obtaining/. […] The stock solutions were prepared in dimethyl sulfoxide (DMSO, Sigma-Aldrich, St. Louis, MO, cat. D2650), except for the platinum compounds which were prepared in saline (Quality Biological, Gaithersburg, MD, cat. 114-055-101), at 800-fold the tested concentration and stored at -70 degrees C prior to their use. All drugs and investigational agents were tested over a range starting from a high concentration at or near the clinical Cmax and decreasing in half-log increments. If the clinical Cmax for an agent had not been determined, the highest concentration tested was 10 microM, except for SN-38, which was tested at a high concentration of 1 microM.
Cell Culture. All cells were maintained in an incubator at 37 degrees C and 5% CO2 with 95% humidity. The PDC lines were cultured according to standard operating procedures established by the NCI PDMR (https://pdmr.cancer.gov). Table 3 of the manuscript, lists the cell lines along with the number of the three cell types plated to form the mct-spheroids and media for tumor cell growth. After thawing, all PDC lines, except 997537-175-T-J1-PDC and 415267-285-R-J2-PDC, were cultured in Matrigel-coated flasks prepared with a working solution of 1X Ham's F-12 nutrient mix, without supplementation (Thermo Fisher Scientific, cat. 11765054), 100 U/mL penicillin-streptomycin (Thermo Fisher Scientific, cat. 15140122), and 2.5% Matrigel (Corning Inc., Corning, NY, cat. 354248) for the first three passages. The two PDC lines 997537-175-T-J1-PDC and 415267-285-R-J2-PDC were cultured on uncoated flasks. The 857933-349-R-J2-PDC line was cultured in 6C/Colon 1B media containing advanced DMEM/F-12 (Thermo Fisher Scientific, cat. 12634028), 10 mM HEPES (Thermo Fisher Scientific, cat. 15630080), 1X GlutaMAX supplement (Thermo Fisher Scientific, cat. 35050061), 0.1 mg/mL primocin (InvivoGen, San Diego, CA, cat. ant-pm-2), 10% defined fetal bovine serum, heat inactivated (HyClone Laboratories Inc., Logan, UT, cat. SH30070.03HI), 50% L-WRN conditioned media (ATCC, cat. CRL-3276), 1.25 mM N-Acetyl-L-cysteine (Sigma-Aldrich, cat. A9165), 10 mM nicotinamide (Sigma-Aldrich, cat. N0636), 1X B-27 supplement (Thermo Fisher Scientific, cat. 17504044), 1X N-2 supplement (Thermo Fisher Scientific, cat. […]
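Also: spheroids exposed to compounds for seven days.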
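For viability, T/C in this document: 100% = DMSO vehicle control viability.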

Question: What does the source list for `COc1cccc2c1C(=O)c1c(O)c3c(c(O)c1C2=O)CC(O)(C(=O)CO)CC3OC1CC(N)C(O)C(C)O1` (stereo not drawn)?
Answer: viability, T/C (compound 0.0316 µM): 59.4% and 71.1% and 60.1%; viability, T/C (compound 0.1 µM): 61.1% and 79% and 56.2%; viability, T/C (compound 0.316 µM): 46.8% and 46.4% and 36.7%; viability, T/C (compound 1 µM): 2.75% and 11.6% and 1.69%; viability, T/C (compound 3.16 µM): 0.71% and 1.11% and 0.66%; viability, T/C (compound 10 µM): 1% and 1.39% and 1.05%; IC50 (curve of compound): 241 nM and 290 nM and 153 nM

Question: `Cn1ncnc1[C@H]1c2n[nH]c(=O)c3cc(F)cc(c23)N[C@@H]1c1ccc(F)cc1` was tested. Which viability, T/C (compound 0.000316 µM) did it give?
Answer: 116% and 120% and 92.5%

Question: What about the viability, T/C (compound 0.001 µM) of the same compound?
Answer: 81.2% and 90.7% and 78%

Question: What about the viability, T/C (compound 0.00316 µM) of the same compound?
Answer: 84.9% and 99.1% and 83.2%

Question: What about the viability, T/C (compound 0.01 µM) of the same compound?
Answer: 93.2% and 89.5% and 78.9%

Question: What about the viability, T/C (compound 0.0316 µM) of the same compound?
Answer: 87.3% and 104% and 84.8%

Question: What about the viability, T/C (compound 0.1 µM) of the same compound?
Answer: 76.4% and 64.8% and 72.8%

Question: What about the IC50 (curve of compound) of the same compound?
Answer: > 100 nM

Question: What does the source list for `COc1cc2cc(C(=O)CCC(=O)O)sc2cc1OC`?
Answer: viability, T/C (compound 0.0316 µM): 105% and 116% and 128%; viability, T/C (compound 0.1 µM): 140% and 92% and 89.7%; viability, T/C (compound 0.316 µM): 89.4% and 92.1% and 94.9%; viability, T/C (compound 1 µM): 115% and 88.4% and 103%; viability, T/C (compound 3.16 µM): 79.9% and 80.8% and 98%; viability, T/C (compound 10 µM): 67.3% and 72.8% and 95.3%; IC50 (curve of compound): > 10000 nM

Question: For `Nc1ccn(C2OC(CO)C(O)C2(F)F)c(=O)n1` (stereo not drawn) + Cc1cccc(N(C)C(=O)C2C(O)CCN2c2nc(C)cc(C(F)(F)F)c2C#N)c1, which IC50 (curve of first compound, second compound 0.0316 µM) is on record?
Answer: 177 nM

Question: What about the IC50 (curve of first compound, second compound 0.1 µM) of the same compound?
Answer: 138 nM

Question: And the IC50 (curve of first compound, second compound 0.316 µM)?
Answer: 140 nM

Question: And the IC50 (curve of first compound, second compound 1 µM)?
Answer: 330 nM

Question: And the IC50 (curve of first compound, second compound 3.16 µM)?
Answer: 213 nM

Question: What about the IC50 (curve of first compound, second compound 10 µM) of the same compound?
Answer: 99.1 nM

Question: What about the viability, T/C (second compound 0.0316 µM, first compound 0.0316 µM) of the same compound?
Answer: 67.7%

Question: And the viability, T/C (second compound 0.0316 µM, first compound 0.1 µM)?
Answer: 49.5%

Question: What about the viability, T/C (second compound 0.0316 µM, first compound 0.316 µM) of the same compound?
Answer: 48.8%

Question: What about the viability, T/C (second compound 0.0316 µM, first compound 1 µM) of the same compound?
Answer: 40.5%

Question: And the viability, T/C (second compound 0.0316 µM, first compound 3.16 µM)?
Answer: 40.4%

Question: What about the viability, T/C (second compound 0.0316 µM, first compound 10 µM) of the same compound?
Answer: 31.4%

Question: And the viability, T/C (second compound 0.1 µM, first compound 0.0316 µM)?
Answer: 59%

Question: What about the viability, T/C (second compound 0.1 µM, first compound 0.1 µM) of the same compound?
Answer: 53.9%

Question: And the viability, T/C (second compound 0.1 µM, first compound 0.316 µM)?
Answer: 44.5%

Question: What about the viability, T/C (second compound 0.1 µM, first compound 1 µM) of the same compound?
Answer: 39.1%

Question: And the viability, T/C (second compound 0.1 µM, first compound 3.16 µM)?
Answer: 44%

Question: What about the viability, T/C (second compound 0.1 µM, first compound 10 µM) of the same compound?
Answer: 36.3%

Question: What about the viability, T/C (second compound 0.316 µM, first compound 0.0316 µM) of the same compound?
Answer: 55.6%

Question: What about the viability, T/C (second compound 0.316 µM, first compound 0.1 µM) of the same compound?
Answer: 50.4%

Question: What about the viability, T/C (second compound 0.316 µM, first compound 0.316 µM) of the same compound?
Answer: 46%

Question: And the viability, T/C (second compound 0.316 µM, first compound 1 µM)?
Answer: 45%

Question: What about the viability, T/C (second compound 0.316 µM, first compound 3.16 µM) of the same compound?
Answer: 39.1%

Question: What about the viability, T/C (second compound 0.316 µM, first compound 10 µM) of the same compound?
Answer: 34%

Question: And the viability, T/C (second compound 1 µM, first compound 0.0316 µM)?
Answer: 58.3%

Question: And the viability, T/C (second compound 1 µM, first compound 0.1 µM)?
Answer: 57.9%

Question: And the viability, T/C (second compound 1 µM, first compound 0.316 µM)?
Answer: 49.2%

Question: What about the viability, T/C (second compound 1 µM, first compound 1 µM) of the same compound?
Answer: 43.9%

Question: What about the viability, T/C (second compound 1 µM, first compound 3.16 µM) of the same compound?
Answer: 38.7%

Question: What about the viability, T/C (second compound 1 µM, first compound 10 µM) of the same compound?
Answer: 32.5%

Question: And the viability, T/C (second compound 3.16 µM, first compound 0.0316 µM)?
Answer: 54.7%

Question: And the viability, T/C (second compound 3.16 µM, first compound 0.1 µM)?
Answer: 54.7%

Question: What about the viability, T/C (second compound 3.16 µM, first compound 0.316 µM) of the same compound?
Answer: 47.7%

Question: What about the viability, T/C (second compound 3.16 µM, first compound 1 µM) of the same compound?
Answer: 43.7%

Question: What about the viability, T/C (second compound 3.16 µM, first compound 3.16 µM) of the same compound?
Answer: 37.5%

Question: And the viability, T/C (second compound 3.16 µM, first compound 10 µM)?
Answer: 31.7%

Question: What about the viability, T/C (second compound 10 µM, first compound 0.0316 µM) of the same compound?
Answer: 69.2%

Question: What about the viability, T/C (second compound 10 µM, first compound 0.1 µM) of the same compound?
Answer: 49%

Question: What about the viability, T/C (second compound 10 µM, first compound 0.316 µM) of the same compound?
Answer: 43.9%

Question: What about the viability, T/C (second compound 10 µM, first compound 1 µM) of the same compound?
Answer: 43.8%

Question: What about the viability, T/C (second compound 10 µM, first compound 3.16 µM) of the same compound?
Answer: 46.6%

Question: What about the viability, T/C (second compound 10 µM, first compound 10 µM) of the same compound?
Answer: 34%
